From ChEMBL document CHEMBL1201862, “PubChem BioAssay data set” (2004)
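The compound was tested at five concentrations on cells cultured in 96-well plates, with a 48-hour exposure period. GI50: concentration for 50% inhibition of growth.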 The source made the active and inactive calls. Cut-off read from the data, not from the text of the source: active = GI50 up to about 1.1 µM and inactive = higher.

Experiments:
Test in all cases: growth of human tumour cells (NCI), 48 h
CCRF-CEM = system: CCRF-CEM
HCC 2998 = system: HCC 2998
HOP-62 = system: HOP-62
IGROV-1 = system: IGROV-1
K562 = system: K562
MOLT-4 = system: MOLT-4
NCI-H522 = system: NCI-H522
OVCAR-5 = system: OVCAR-5
OVCAR-8 = system: OVCAR-8
RXF 393 = system: RXF 393
SK-MEL-28 = system: SK-MEL-28
SK-MEL-2 = system: SK-MEL-2
TK-10 = system: TK-10
SF-295 = system: SF-295
SNB-75 = system: SNB-75
UACC-257 = system: UACC-257
LOX IMVI = system: LOX IMVI

Measured: GI50

Nc1ccc2c(c1)Oc1c(F)c(F)cc3c(=O)c(C(=O)O)cn-2c13
inactive: CCRF-CEM 33 µM | HCC 2998 > 100 µM | HOP-62 31.7 µM | IGROV-1 38.6 µM | K562 59.6 µM | MOLT-4 24 µM | NCI-H522 29.9 µM | OVCAR-5 > 100 µM | OVCAR-8 40.2 µM | RXF 393 43.8 µM | SK-MEL-28 40.3 µM | SK-MEL-2 80.2 µM | TK-10 38.1 µM

Clc1ccc(C2=NOC3C4CCC(C4)C23)cc1 (stereo not drawn)
inactive: CCRF-CEM > 100 µM | HCC 2998 > 100 µM | HOP-62 > 100 µM | IGROV-1 > 100 µM | K562 > 100 µM | MOLT-4 59.4 µM | NCI-H522 59.8 µM | OVCAR-5 > 100 µM | OVCAR-8 > 100 µM | SF-295 73.1 µM | SK-MEL-28 > 100 µM | SK-MEL-2 > 100 µM | SNB-75 > 100 µM | TK-10 > 100 µM | UACC-257 > 100 µM

COC1=CC(=C(C#N)/C(=N\c2ccccc2)SC)C=C(OC)C1=O
inactive: CCRF-CEM 16 µM | HCC 2998 94.8 µM | IGROV-1 86.1 µM | K562 22.6 µM | LOX IMVI 39.5 µM | MOLT-4 20.8 µM | NCI-H522 37.6 µM | OVCAR-8 31.1 µM | RXF 393 24.4 µM | SF-295 69.2 µM | SK-MEL-28 > 100 µM | SNB-75 95.3 µM | TK-10 > 100 µM | UACC-257 56.6 µM

Cc1cc2c(cc1C)[n+]([O-])c(C(=O)/C=C/c1ccc(Cl)cc1)c(C)[n+]2[O-]
inactive: CCRF-CEM 32.9 µM | HCC 2998 23.5 µM | HOP-62 24.4 µM | IGROV-1 24.5 µM | K562 33.6 µM | LOX IMVI 21.7 µM | MOLT-4 23.8 µM | NCI-H522 19.4 µM | OVCAR-5 42.3 µM | OVCAR-8 29.7 µM | SF-295 22 µM | SK-MEL-28 23.2 µM | SK-MEL-2 29.5 µM | SNB-75 19.6 µM | TK-10 22.2 µM | UACC-257 27.3 µM

NC(Cc1ccccc1)C(=O)OCN1C(=O)C2C3C=CC(C2C1=O)C1C2C(=O)N(COC(=O)C(N)Cc4ccccc4)C(=O)C2C31 (stereo not drawn)
inactive: CCRF-CEM 22.8 µM | IGROV-1 23.9 µM | K562 29.6 µM | LOX IMVI 18.7 µM | OVCAR-5 35.5 µM | OVCAR-8 20.2 µM | RXF 393 22.1 µM | SF-295 41.7 µM | SK-MEL-28 18.6 µM | SNB-75 26.2 µM | TK-10 39.2 µM | UACC-257 23.2 µM

O=CCCn1[nH]c(=O)ccc1=O
inactive: CCRF-CEM > 100 µM | HCC 2998 > 100 µM | IGROV-1 > 100 µM | K562 > 100 µM | LOX IMVI > 100 µM | MOLT-4 > 100 µM | OVCAR-5 > 100 µM | OVCAR-8 > 100 µM | RXF 393 > 100 µM | SF-295 > 100 µM | SK-MEL-28 > 100 µM | SK-MEL-2 > 100 µM | SNB-75 > 100 µM | TK-10 > 100 µM | UACC-257 > 100 µM

Cc1c(Cl)ccc2c1NC(=O)C2(O)C1Cc2ccccc2C1=O (stereo not drawn)
inactive: CCRF-CEM 26.1 µM | HCC 2998 32.7 µM | HOP-62 > 100 µM | IGROV-1 > 100 µM | K562 62.1 µM | LOX IMVI > 100 µM | MOLT-4 25.2 µM | NCI-H522 > 100 µM | OVCAR-5 > 100 µM | OVCAR-8 11.2 µM | RXF 393 57.9 µM | SF-295 > 100 µM | SK-MEL-28 > 100 µM | SK-MEL-2 > 100 µM | TK-10 > 100 µM | UACC-257 > 100 µM

Brc1ccc(/N=c2/nc3ccccn3n3nc(-c4ccccc4)cc23)cc1
inactive: CCRF-CEM > 100 µM | HOP-62 15 µM | IGROV-1 > 100 µM | K562 > 100 µM | MOLT-4 > 100 µM | NCI-H522 17.3 µM | OVCAR-8 28.3 µM | RXF 393 14.9 µM | SF-295 34.8 µM | SK-MEL-28 36 µM | SK-MEL-2 9.57 µM | SNB-75 52.4 µM | TK-10 29.8 µM | UACC-257 48.4 µM

CCCO/S(=N\S(=O)(=O)c1ccccc1)c1ccccc1[N+](=O)[O-] (stereo not drawn)
inactive: CCRF-CEM > 100 µM | HCC 2998 > 100 µM | HOP-62 > 100 µM | IGROV-1 > 100 µM | K562 > 100 µM | LOX IMVI > 100 µM | MOLT-4 > 100 µM | NCI-H522 > 100 µM | OVCAR-5 > 100 µM | OVCAR-8 > 100 µM | SF-295 > 100 µM | SK-MEL-28 63.8 µM | SK-MEL-2 > 100 µM | SNB-75 > 100 µM | UACC-257 > 100 µM

CN(C)CCCNC(=O)N/N=C/c1cccc([N+](=O)[O-])c1
inactive: CCRF-CEM > 100 µM | IGROV-1 > 100 µM | K562 > 100 µM | LOX IMVI > 100 µM | MOLT-4 > 100 µM | NCI-H522 > 100 µM | OVCAR-8 > 100 µM | RXF 393 > 100 µM | SF-295 > 100 µM | SK-MEL-28 > 100 µM | SK-MEL-2 > 100 µM | SNB-75 44 µM | TK-10 > 100 µM | UACC-257 > 100 µM

NC(=O)N1N=C2c3ccccc3SC[C@H]2[C@@H]1c1ccccc1
inactive: CCRF-CEM 23.1 µM | HCC 2998 26.9 µM | HOP-62 25.6 µM | IGROV-1 26.6 µM | K562 24.2 µM | LOX IMVI 17.5 µM | MOLT-4 23.7 µM | NCI-H522 > 10 µM | OVCAR-5 21.3 µM | OVCAR-8 24 µM | RXF 393 2.26 µM | SF-295 25.1 µM | SK-MEL-28 21.8 µM | TK-10 32.1 µM | UACC-257 18.4 µM

COc1ccc2[nH]c3c(O)nncc3c2c1
inactive: CCRF-CEM > 100 µM | HCC 2998 > 100 µM | HOP-62 > 100 µM | IGROV-1 > 100 µM | K562 > 100 µM | LOX IMVI > 100 µM | MOLT-4 > 100 µM | NCI-H522 > 100 µM | OVCAR-5 > 100 µM | OVCAR-8 > 100 µM | SF-295 > 100 µM | SK-MEL-28 > 100 µM | SK-MEL-2 71.3 µM | SNB-75 16.4 µM | TK-10 > 100 µM | UACC-257 > 100 µM

COC(=O)C(=O)C(CC(=O)Nc1ccc(C)cc1)C(=O)OC (stereo not drawn)
inactive: CCRF-CEM > 100 µM | HCC 2998 > 100 µM | HOP-62 > 100 µM | IGROV-1 > 100 µM | K562 > 100 µM | LOX IMVI > 100 µM | MOLT-4 > 100 µM | NCI-H522 > 100 µM | OVCAR-5 > 100 µM | OVCAR-8 > 100 µM | RXF 393 > 100 µM | SF-295 > 100 µM | SK-MEL-28 > 100 µM | SK-MEL-2 > 100 µM | TK-10 > 100 µM | UACC-257 > 100 µM

O=C(NCCCCCCNC(=O)c1cccc2ccccc12)c1cccc2ccccc12
inactive: CCRF-CEM > 100 µM | HOP-62 20.5 µM | IGROV-1 32.9 µM | K562 > 100 µM | LOX IMVI 14.2 µM | MOLT-4 > 100 µM | NCI-H522 17.9 µM | OVCAR-5 > 100 µM | OVCAR-8 18.7 µM | RXF 393 8.51 µM | SF-295 1.93 µM | SK-MEL-28 > 100 µM | SK-MEL-2 12.2 µM | SNB-75 3.29 µM | TK-10 14.9 µM | UACC-257 74.3 µM

CCCCCCCCCCCCCCCCCC(=O)NCCCNCCCNC(=O)CCCCCCCCCCCCCCCCC
inactive: CCRF-CEM > 100 µM | HCC 2998 > 100 µM | HOP-62 > 100 µM | IGROV-1 > 100 µM | K562 > 100 µM | LOX IMVI > 100 µM | MOLT-4 > 100 µM | OVCAR-5 > 100 µM | OVCAR-8 > 100 µM | SF-295 > 100 µM | SK-MEL-28 > 100 µM | TK-10 > 100 µM | UACC-257 > 100 µM

CN(c1ccccc1)c1cc2ccccc2nn1
inactive: CCRF-CEM 47.1 µM | HOP-62 > 100 µM | IGROV-1 > 100 µM | K562 89.7 µM | LOX IMVI 84.5 µM | MOLT-4 52.7 µM | NCI-H522 27.6 µM | OVCAR-5 > 100 µM | OVCAR-8 > 100 µM | RXF 393 > 100 µM | SF-295 67.9 µM | SK-MEL-28 > 100 µM | SK-MEL-2 > 100 µM | SNB-75 64.3 µM | TK-10 > 100 µM | UACC-257 > 100 µM

O/N=C1/CCCC/C1=C\c1ccc(Cl)c(Cl)c1
inactive: CCRF-CEM 18.9 µM | HCC 2998 29 µM | HOP-62 49 µM | IGROV-1 38 µM | K562 27.8 µM | LOX IMVI 21 µM | MOLT-4 15.2 µM | OVCAR-8 33.7 µM | SF-295 40.5 µM | SK-MEL-28 34.2 µM | SNB-75 20.7 µM | TK-10 34.8 µM

O=C1C2=C(CCCC2)Nc2cccc3ncn1c23
inactive: CCRF-CEM > 100 µM | HCC 2998 > 100 µM | HOP-62 > 100 µM | K562 > 100 µM | LOX IMVI > 100 µM | MOLT-4 > 100 µM | NCI-H522 > 100 µM | OVCAR-5 > 100 µM | OVCAR-8 > 100 µM | RXF 393 > 100 µM | SF-295 > 100 µM | SK-MEL-28 > 100 µM | SK-MEL-2 > 100 µM | TK-10 > 100 µM | UACC-257 > 100 µM
